Like-named read-outs stand apart in the source and are kept apart here.
Experiments:
6-AmHap-Abs [1] = assay type: binding, mouse; settings: for Ki: read-out: Heterologous MST Ki; for IC50: read-out: Heterologous MST IC50
Method: The final concentrations of 6-AmHap-Abs, MorHap-Cy5 in the capillaries were 10 nM and 0.25 nM, respectively. The same procedure was performed for the binding of the 6-AmHap-Abs to the other drugs but different concentrations of competitor working solutions were used.
For the heroin-binding assay in the presence of esterase inhibitors, a working solution containing 6-AmHap antibody (40 nM) and 80 μM iso-OMPA/80 μM BNPP was incubated for 2 h at RT. An equal volume of MorHap-Cy5 (1 nM) was then mixed with the 6-AmHap-Abs/iso-OMPA/BNPP mixture and the reaction mixture was further incubated for 20 min in the dark at RT. The rest of the procedure was performed as described above. The final concentrations of 6-AmHap-Abs, iso-OMPA/BNPP, and MorHap-Cy5 in the capillaries were 10 nM, 20 μM/20 μM, and 0.25 nM, respectively.
(§1) The MST measurements were done on a Monolith™ NT.115^Pico instrument from NanoTemper Technologies GmbH. The instrument was equipped with an IR laser (wavelength, 1475 ± 15 nm; power, 120 mW maximum) and a red fluorescence channel that can detect red dyes, such as Cy5 and Alexa Fluor 647. The samples were measured at an LED power of 20% and an MST power of 25% with a laser-on time of 30 s and a laser-off time of 5 s. MST measurements of 15–16 samples typically take ~ 20 min.
In the competition MST procedures, a constant concentration of MorHap-Cy5:antibody complex was titrated with an increasing concentration of drug competitor. […] The software plots Fnorm against 15–16 increasing drug competitor concentration points to yield the binding curve, and subsequently fits the curve to obtain the IC50. For presentation purposes, the fraction bound was manually calculated and plotted using the equation above where x is the Fnorm at a given competitor concentration. The binding affinities (Ki) from the heterologous MST assays were then derived using the Ki-Finder software from the Nanotemper website. In order to calculate the Ki, the following parameters must be entered into the Ki-Finder website: the binding affinity of the tracer against the antibody (Kd), the concentration of the antibody (I0), the concentration of the tracer (labeled T0), the highest concentration of the competitor (L0), and the IC50 of the competitor to the antibody. The website then plots both the binding curve and competition curve to produce the competitor Ki, also known as the Kd of the antibody to the drug competitor.

[2] = degradation of heroin in humans, Fig. 1a; cited from earlier work
6-AmHap-Abs [3] = assay type: binding, mouse; settings: read-out: Competition ELISA Heterologous, IC50
6-AmHap-Abs [4] = settings: ref Sulima et al [3]; read-out: Competition ELISA Homologous, IC50; cited from earlier work
6-AmHap-Abs [5] = assay type: binding, mouse; settings: read-out: Kd of 6-AmHap-Abs derived from ED-UPLC/MS/MS; post-immune serum diluted 1:1600, 5 nM D3-tracer
Method: Post-immune sera (week 8) from the mouse study described by Sulima et al. [12] were used in this study. […] Briefly, post-immune serum was diluted in DPBS (1:1600). Dialysis buffer was prepared by diluting the corresponding pre-immune serum (week 0) in DPBS (1:1600). […] A 100-μL dilution of week 8 serum containing 5 nM D3-tracer was pipetted into the sample chamber, and a 300-μL aliquot of the competitive inhibitor solution was added to the buffer chamber. Both week 8 and week 0 were run against each other at the same sera dilutions. For negative controls, the same setup was employed except both sides of the dialysis chamber contained only week 0 serum. Equilibrium dialysis, preparation of samples for UPLC/MS/MS, and calculation of Kd were performed as described [13].
The antibody binding site concentration was derived from Müller’s equation [17] and was calculated using the following formula: Abt=bTt+b×Kd/1−b where [Abt] is the total concentration of the antibody binding sites, b is the fraction of bound D3-tracer in the absence of competitive inhibitor, [Tt] is the total molar concentration of the D3-tracer after equilibrium, and Kd is the apparent dissociation constant.

[6] = molecular target: Anti-morphine antibody (ab1060); assay type: binding, mouse; settings: 0.25 nM MorHap-Cy5, 10 nM ab1060, 4000 nM competitor
Method: as §1
In the competition MST procedures, a constant concentration of MorHap-Cy5:antibody complex was titrated with an increasing concentration of drug competitor. […] The software plots Fnorm against 15–16 increasing drug competitor concentration points to yield the binding curve, and subsequently fits the curve to obtain the IC50. For presentation purposes, the fraction bound was manually calculated and plotted using the equation above where x is the Fnorm at a given competitor concentration. The binding affinities (Ki) from the heterologous MST assays were then derived using the Ki-Finder software from the Nanotemper website. […]

[7] = 0.25 nM MorHap-Cy5, 10 nM antibody binding sites, without esterase inhibitors, […]
[8] = 0.25 nM MorHap-Cy5, 10 nM antibody binding sites, without esterase inhibitors

Molecule | Ki (6-AmHap-Abs [1]; [7]) [nM] | IC50 (6-AmHap-Abs [1]; [8]) [nM] | IC50 (6-AmHap-Abs [3]) [nM] | IC50 (6-AmHap-Abs [4]) [µM] | also measured
6-acetylmorphine [6-AM] | 0.44 ± 0.33 | 6.75 ± 1.17 | 19.8 ± 6.33 | 3.72 ± 0.7 | t1/2 [2]: 0.367 to 0.433 h; Kd (6-AmHap-Abs [5]): 0.53 ± 0.28 nM
CN1CC[C@]23c4c5ccc(O)c4O[C@H]2[C@@H](O)C=C[C@H]3[C@H]1C5O (stereo partly drawn) [10-Hydroxymorphine, 10-hydroxymorphine] | 18.4 ± 5.78 | 51.2 ± 0.72 |  |  | 
CC(=O)Nc1ccccc1 [Acetanilide, acetanilide] |  |  |  |  | Heterologous MST IC50 (6-AmHap-Abs [1]; [8]): No binding; Heterologous MST Ki (6-AmHap-Abs [1]; [7]): No binding; Heterologous MST Ki (6-AmHap-Abs [1]; 0.25 nM MorHap-Cy5, 10 nM antibody binding sites, without esterase inhibitors, […], listed as acetanilide): Neither acetanilide nor N-methylpiperidine bound
CN1CC[C@]23c4c5ccc(O)c4O[C@H]2CCC[C@H]3[C@H]1C5 [Desomorphine, desomorphine] |  |  |  |  | IC50 (6-AmHap-Abs [1]): 9.07 ± 0.73 nM; Ki (6-AmHap-Abs [1]): 0.9 ± 0.64 nM
CN1CC[C@]23CCCC[C@H]2[C@H]1Cc1ccc(O)cc13 [Levorphanol, levorphanol] | 11.6 ± 4.41 | 33.7 ± 0.91 | 341 ± 138 | 3.39 ± 0.9 | 
CN1CC[C@]23c4c5ccc(O[C@@H]6O[C@H](C(=O)O)[C@@H](O)[C@H](O)[C@H]6O)c4O[C@H]2[C@@H](O)C=C[C@H]3[C@H]1C5 [M-3G, morphine-3-β-glucuronide] | 27.9 ± 4.14 | 69.1 ± 1.24 | 23.2 ± 7.33 | 28 ± 11.4 | t1/2 [2]: 4.5 h
CN1CC[C@]23c4c5ccc(O)c4O[C@H]2[C@@H](O[C@@H]2O[C@H](C(=O)O)[C@@H](O)[C@H](O)[C@H]2O)C=C[C@H]3[C@H]1C5 [M-6G, morphine-6-β-glucuronide] | 0.66 ± 0.9 | 5.88 ± 1.22 | 11.3 ± 2.16 | 25 ± 12.1 | t1/2 [2]: 4.60 h
CN1CC[C@]23c4c5ccc(O)c4O[C@H]2[C@H](NC(=O)CCSCC(N)=O)C=C[C@H]3[C@H]1C5 [MorHap-acetamide] |  |  |  |  | Ki [6]: 14 ± 7.97 nM
C[N+]1([O-])CC[C@]23c4c5ccc(O)c4O[C@H]2[C@@H](O)C=C[C@H]3[C@H]1C5 (stereo partly drawn) [Morphine N-Oxide, morphine N-oxide] | 6460 ± 4780 | 12651 ± 1.33 |  |  | 
CN1CCCCC1 [N-Methylpiperidine, N-methylpiperidine] |  |  |  |  | Heterologous MST IC50 (6-AmHap-Abs [1]; [8]): No binding; Heterologous MST Ki (6-AmHap-Abs [1]; [7]): No binding; Heterologous MST Ki (6-AmHap-Abs [1]; 0.25 nM MorHap-Cy5, 10 nM antibody binding sites, without esterase inhibitors, […], listed as N-methylpiperidine): Neither acetanilide nor N-methylpiperidine bound
C=CCN1CC[C@]23c4c5ccc(O)c4O[C@H]2[C@@H](O)C=C[C@H]3[C@H]1C5 [Nalorphine, nalorphine] | 2.93 ± 0.98 | 10.6 ± 0.89 |  |  | 
Oc1ccc2c3c1O[C@H]1[C@@H](O)C=C[C@H]4[C@@H](C2)NCC[C@@]341 [Normorphine, normorphine] | 55.1 ± 7.58 | 136 ± 0.94 | 3220 ± 2000 | 112 ± 22.3 | 
CN1CC[C@]23c4c5ccc(O)c4O[C@H]2C(=O)CC[C@@]3(O)[C@H]1C5 [Oxymorphone, oxymorphone] | 251 ± 7 | 598.1 ± 0.95 | 2430 ± 864 | 125 ± 28.6 | 
COC1=CC=C2[C@H]3Cc4ccc(OC)c5c4[C@@]2(CCN3C)[C@H]1O5 [Thebaine, thebaine] | 13.1 ± 5.47 | 35.6 ± 0.91 |  |  | 
